Measured values as given in patent US20150330990A1, “METHOD OF SCREENING CANDIDATE BIOCHEMICAL ENTITIES TARGETING A TARGET BIOCHEMICAL ENTITY” (BIODESY, INC., priority 2013, published 2015).
Where “and” joins values, the source holds several entries; their conditions need not be identical. Equal entries are not always repeated. Blank lines part the entries; values can stand above or below the compound they belong to.

Experiments:
[1] = biological target: T1, alpha-synuclein (Homo sapiens, UniProt P37840, A90C); settings: 1 mM Dopamine, 50 mM Hepes pH 7.4, 100 mM NaCl
Protocol: An alanine to cysteine mutation (A90C) was introduced into alpha-synuclein to produce a site-specific peptide for dye conjugation, as native alpha-synuclein lacks cysteine residues. A90C alpha-synuclein was then labeled with PyMPO-Maleimide using standard techniques and the location of the modified peptide was verified by mass spectroscopy to be cysteine 90.
For SHG experiments performed with alpha-synuclein, a stock solution of PyMPO-Maleimide-labeled A90C alpha-synuclein was diluted to a final concentration of 5 μM in 50 mM Hepes, pH 7.4, 100 mM NaCl. The 5 μM protein solution was then immobilized onto an aldehyde derivatized glass slide by incubating for one hour at room temperature. Control (buffer) and compound injections were performed in 50 mM Hepes, pH 7.4, 100 mM NaCl.
The experiments were performed with an instrument comprising a mode-locked Ti:sapphire oscillator which provides the fundamental beam necessary to generate the second-harmonic signal (high peak power intensity). We used a Mira 900 Ti:Sapphire ultrafast oscillator (Coherent Inc.) pumped by a Millenia V DPSS laser (Spectra-Physics Corp.). The Ti:sapphire oscillator produced ˜0.7 W of fundamental power at 780 nm with pulse duration of ˜150 fs at 80 MHz. […]

[2] = system: Raf kinase; experiment: SHG signature on Raf kinase surface array (Example 4); type: binding; settings: positive direction
Protocol: A library comprising 200 distinct compounds and Sorafenib, each with a molecular weight between 400 and 500 g/mol, three aromatic groups, and 2-5 nitrogen atoms, is evaluated for the structure-activity relationship using a surface array comprising more than 200 copies of a Raf kinase. The conformation state of the Raf kinase is measured by […] (SHG) methods described in the present application to establish a baseline in the absence of any compound. Each compound in the library is then contacted with a single copy of the Raf kinase on the array. The conformational state of each copy of the single kinase target is measured by SHG methods. The SHG signature for each compound is determined based on the change in conformational state upon contacting the Raf kinase. Sorafenib has a SHG signature with a 30% shift (i.e. magnitude) in the positive direction. The compounds are grouped, based on their SHG signature and common structural parameters, to generate a structure-activity relationship (SAR) catalog. For example, the 8 compounds that have a signature within 10% in magnitude to that of Sorafenib are cataloged as “molecular weight between 400 and 500 g/mol, three aromatic groups, 2-5 nitrogen atoms, and a signature with +27% to +33% magnitude”. […]

[3] = biological target: T1, alpha-synuclein; experiment: SHG conformational change assay, compound added alone; type: binding; set-up: made in house; settings: for EC50: 5 μM alpha-synuclein, GraphPad non-linear fit, read-out: EC50 (SHG dose-response curve; binding affinity)
Text: A single-site cysteine mutant […]) of the alpha-synuclein was constructed and labeled with PyMPO-maleimide (Invitrogen), an SH-active probe that we have used in previous studies ([…], Journal of Chemical Physics 125(7), 2006; […], Physical Chemistry Chemical Physics 9(42):5704-5711, 2007). Mutant […]) protein was previously determined to function like wild-type (Bertoncini C W, et al., Proceedings of the National Academy of Sciences of the United States of America 102(5):1430-1435, 2005). The label was coupled to the protein according to the manufacturer's instructions and purified by gel filtration. Artemis SHG Screening Instrumentation: The Artemis instrument is comprised of a mode-locked Ti:sapphire oscillator that provides the fundamental beam necessary to generate second-harmonic light (high peak power intensity). […] Each of the 16 wells is read in sequence by translating the stage via the control software. Artemis was outfitted with a single-channel liquid injector (Cavro) which delivered a liquid bolus. The liquid bolus volume and delivery speed could be varied. In the experiments described here, we used a volume of 10 μl delivered in 1 second. The measured parameters include the read time before and after ligand injection, integration time, stage temperature (kept at room temperature for all experiments here), and the stage position, relative to the line of the fundamental beam. A custom silicone template with adhesive backing (Arrowleaf Research) was applied to commercially available Xenobind glass microscope slides (Xenopore) using a custom machined assembly jig to define 16 wells of diameter 3 mm (volume 15 μl) on each slide. The template defining the wells is registered to a standard 96-well plate. […] After allowing the protein to absorb, the slide was placed on the […] platform and each well was scanned via SHG to determine the amount of protein in each well. Unbound protein was then removed by washing five times with 20 μL PBS. A post-wash well scan was then performed to determine how much protein was bound to the slide surface. To determine the dose-response curves of Spermine (Sigma), Spermidine (Sigma), and COMPOUND A, serial dilutions of each compound were used to prepare stock solutions. Each compound was added to a well to produce the indicated final concentration. […] For COMPOUND A the concentration range was 5 μ[…], and 1 mM. The concentrations were then converted to the log scale and the data plotted in GraphPad Prism V5 using the non-linear regression fit for log(agonist) vs response with variable slope. […] The EC50 values were calculated by the software. Control experiments were performed on each compound to empirically determine the time frame required for each compound to produce a maximal response (Tmax). […] The resulting value was reported as the percent change in SHG intensity due to compound addition.

[4] = biological target: T1, alpha-synuclein; experiment: SHG competition assays (spermine-spermidine, spermine-COMPOUND A, analog-spermine, library screen); type: binding; set-up: made in house; settings: 3 mM Spermidine added after 25 minutes incubation with 1 mM Spermine
Protocol: The Maybridge Ro3 fragment library contains over 1,000 pharmacophoric compounds of 95% purity solubilized at 50 mM in DMSO. For fragment screening experiments, a single compound from the library was diluted in PBS and placed in each well at a final concentration of 1 mM ([…]).
After 25 minutes, 3 mM spermidine was added to each well and the resulting change in SHG intensity was measured.
To calculate the percent change, the SHG intensity as measured just prior to injection (T0) was subtracted from the SHG intensity at Tmax and then divided by T0 according to the following equation: SHG %=(ISHG@Tmax−ISHG@T0)/ISHG@T0.
A control buffer injection was used to determine the threshold for SHG intensity change and was calculated in a similar manner to above. The net SHG intensity change for each compound was then reported by subtracting the buffer threshold value from the SHG intensity value produced by compound addition. The resulting value was reported as the percent change in SHG intensity due to compound addition.
Each well was loaded with 5 μM alpha-synuclein and pre-incubated with one fragment compound from the Maybridge Ro3 library for 30 minutes at 1 mM in assay buffer. […] As shown in FIG. 2C (right trace), addition of 1 mM COMPOUND A to alpha-synuclein changes the SHG baseline signal immediately.

[5] = biological target: T2, alpha-synuclein (Homo sapiens, UniProt P37840); experiment: Thioflavin T assay / fibrillization of alpha-synuclein in vitro; type: biochemical
[6] = biological target: T2, alpha-synuclein; settings: cited from earlier work

average percent change in the SHG intensity of alpha-synuclein [1]: 3.375±1.13%
Compound: NCCc1ccc(O)c(O)c1 [Dopamine]

Compound: CNC(=O)c1cc(Oc2ccc(NC(=O)Nc3ccc(Cl)c(C(F)(F)F)c3)cc2)ccn1 [Sorafenib]
SHG signature shift (magnitude) [2]: 30%

change in the SHG intensity of alpha-synuclein ([3]; treatment with 10 μM PcTS): −79.6±2.7%
Compound: Phthalocyanine Tetrasulfonate [PcTs]

Compound: NCCCCNCCCN [Spermidine]
change in SHG intensity [4]: 5.1±0.81% | EC50 [3]: 1110 µM | increase in SHG intensity ([3]; 3 mM compound added alone): 19.88±2.37% | logEC50 ([3]; SHG dose-response curve): −2.95±0.19

increase of the rate of aggregation of alpha-synuclein in vitro [5]: roughly two-fold | EC50 [3]: 840 µM and 790 µM | Compound Only (% Shift/% Change) ([3]; 1 mM): 30.23 ± 3.69% | change in SHG intensity ([3]; 1 mM compound added alone to 5 μM alpha-synuclein): 25.58±4.33% and 30.23±3.69% | change in the SHG intensity ([3]; 5 mM compound added alone to 5 μM alpha-synuclein): 36.26±4.97% and 37.44±6.40%
Compound: NCCCNCCCCNCCCN [Spermine]
factor of increase of aggregation rate in vitro [6]: 10^5
